Activity calls are given as the source filed them. The rule behind the calls is not given here.
Columns and labels:
[1] = yeast lifespan-shortening chemical project counter-assay, dose-response inhibition of growth under permissive conditions (AID 850); conditions: Saccharomyces cerevisiae growth inhibition, permissive control, measured here: maximum growth inhibition, stronger effect = higher value;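 note: growth read as optical density after one day of incubation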
[2] = tested on: Saccharomyces cerevisiae growth inhibition, permissive control; test: as above

Compound | inhibition ([1]; at 1.563 µM) [%] | IC50 [2] | inhibition ([1]; at 50 µM) [%]
COc1ccc(C(=O)/C=C/Nc2ccc(C)cn2)cc1OC | 14.8 | > 100 µM (inactive) | –
Cc1c(N=Cc2cc(Br)cc(Br)c2O)cccc1C(=O)O | – | 6.96 µM | 99

From PubChem BioAssay AID850 (SRMLSC, 2007)
